Test results from EP0545912B1, “1-Biphenylmethylimidazole derivatives, their preparation and their therapeutic use” (Sankyo Company Limited, priority 1991, dated 1992).

System: All receptor (pressor response to angiotensin II)
Test: Evaluation of AII receptor blocking activity by inhibition of pressor response to angiotensin II
Type: in vivo
Settings: dose inhibiting pressor response to intravenous angiotensin II (50 ng/kg) by fifty percent; anesthetized male Wister-Imamichi rats; test compound i.v., angiotensin II injected two minutes later; 2 min
Method: Evaluation of All receptor blocking activity by Inhibition of pressor response to angiotensin II
The biological activity of each compound was assessed by determining the dose required to inhibit the pressor response to intravenous angiotensin II by fifty percent (ID50) in rats. Male Wister-Imamichi rats, each weighing 300 to 400 g, were anesthesized by intraperitoneal injection of 100 mg/Kg of sodium thiobutabarbital [Inactin (trade name)] and two cannulae were inserted: one into the femoral artery for measuring blood pressure and the other into the femoral vein for injecting drugs. Fifty ng/kg of angiotension II were intravenously administered at intervals of about 10 minutes, and the elevation of blood pressure (normally about 50 mmHg) was observed. After constant pressor responses to angiotensin II were obtained, a test compound was intravenously administered. Two minutes later, angiotension II was again injected, and the inhibitory effect of the test compound was estimated. The percent inhibitions of the pressor response to angiotensin II by progressive increase of the test compound was used to calculate the value of ID50. Angiotensin II was used in this test dissolved in 0.5 % bovine serum albumin (BSA) and the test compounds were dissolved in 100% dimethyl sulphoxide (DMSO).
In addition to the compounds of the invention (which are identified hereafter by the number of the one of the following Examples which illustrates their preparation), we also carried out the same experiment using a prior art compound (identified in the Table as "compound A"), which is 2-[4-(2-butyl-5-chloro-4-chloromethylimidazoll-ylmethyl)phenyl]benzoic acid, which is disclosed in Example 118 of European Patent Publication No. 253 310.

Row | SMILES | ID50
1 | CCCCc1nc(CO)c(C(=O)O)n1Cc1ccc(-c2ccccc2C(=O)O)cc1 [Example 5, 2-Butyl-1-[(2'-carboxybiphenyl-4-yl)methyl]-4-hydroxymethylimidazole-5-carboxylic acid] | 0.22 mg/kg, i.v.
2 | CCCCc1nc(C(C)O)c(C(=O)O)n1Cc1ccc(-c2ccccc2C(=O)O)cc1 (stereo not shown) [Example 11, 2-Butyl-1-[(2'-carboxybiphenyl-4-yl)methyl]-4-(1-hydroxyethyl) imidazole-5-carboxylic acid] | 0.25 mg/kg, i.v.
3 | CCCc1nc(CO)c(C(=O)O)n1Cc1ccc(-c2ccccc2-c2nnn[nH]2)cc1 [Example 36, 4-Hydroxymethyl-2-propyl-1-{4-[2-(tetrazol-5-yl)phenyl]phenyl}methylimidazole-5-carboxylic acid] | 0.0062 mg/kg, i.v.
4 | CCCCc1nc(CO)c(C(=O)O)n1Cc1ccc(-c2ccccc2-c2nnn[nH]2)cc1 [Example 39, 2-Butyl-4-hydroxymethyl-1-{4-[2-(tetrazol-5-yl)-phenyl]phenyl}methylimidazole-5-carboxylic acid] | 0.010 mg/kg, i.v.
5 | CCCc1nc(C(C)O)c(C(=O)O)n1Cc1ccc(-c2ccccc2-c2nnn[nH]2)cc1 (stereo not shown) [Example 41, 4-(1-Hydroxyethyl)-2-propyl-1-{4-[2-(tetrazol-5-yl)phenyl]phenyl}methylimidazole-5-carboxylic acid] | 0.0063 mg/kg, i.v.
6 | CCCCc1nc(C(C)O)c(C(=O)O)n1Cc1ccc(-c2ccccc2-c2nnn[nH]2)cc1 (stereo not shown) [Example 44, 2-Butyl-4-(1-hydroxyethyl)-1-{4-[2-(tetrazol-5-yl)phenyl]phenyl}methylimidazole-5-carboxylic acid] | 0.0082 mg/kg, i.v.
7 | CCCCc1nc(C(C)O)c(C(N)=O)n1Cc1ccc(-c2ccccc2C(=O)O)cc1 (stereo not shown) [Example 45, 2-Butyl-1-[(2'-carboxybiphenyl-4-yl)methyl]-4-(1-hydroxyethyl) imidazol-5-carboxamide] | 0.19 mg/kg, i.v.
8 | CCCCc1nc(C(O)CC)c(C(N)=O)n1Cc1ccc(-c2ccccc2C(=O)O)cc1 (stereo not shown) [Example 46, 2 -Butyl-1-[(2'-carboxybiphenyl-4-yl)methyl]-4-(1-hydroxypropyl)imidazole-5-carboxamide] | 0.18 mg/kg, i.v.
9 | CCCCc1nc(C(O)C(C)C)c(C(N)=O)n1Cc1ccc(-c2ccccc2C(=O)O)cc1 (stereo not shown) [Example 48, 2-Butyl-1-[(2'-carboxybiphenyl-4-yl)methyl]-4-(1-hydroxy-2-methylpropyl)imidazole-5-carboxamide] | 0.064 mg/kg, i.v.
10 | CCCCc1nc(CO)c(C(=O)NCC(=O)O)n1Cc1ccc(-c2ccccc2C(=O)O)cc1 [Example 55, N-Carboxymethyl-2-butyl-1-[(2'-carboxybiphenyl-4-yl)-methyl]-4-hydroxymethylimidazole-5-carboxamide] | 0.23 mg/kg, i.v.
11 | CCCCc1nc(C(O)C(C)(C)C)c(C(N)=O)n1Cc1ccc(-c2ccccc2C(=O)O)cc1 (stereo not shown) [Example 59, 2-Butyl-1-[(2'-carboxybiphenyl-4-yl)methyl]-4-(1-hydroxy-2,2-dimethylpropyl)imidazole-5-carboxamide] | 0.066 mg/kg, i.v.
12 | CCCc1nc(C(O)C(C)(C)C)c(C(N)=O)n1Cc1ccc(-c2ccccc2C(=O)O)cc1 (stereo not shown) [Example 60, 1-[(2'-Carboxybiphenyl-4-yl)methyl]-4-(1-hydroxy-2,2-dimethylpropyl)-2-propylimidazole-5-carboxamide] | 0.134 mg/kg, i.v.
13 | CCCc1nc(C(O)C(C)(C)C)c(C(N)=O)n1Cc1ccc(-c2ccccc2-c2nnn[nH]2)cc1 (stereo not shown) [Example 74, 4-(1-Hydroxy-2,2-dimethylpropyl)-2-propyl-1-{4-[2-(tetrazol-5-yl)phenyl]phenyl}methylimidazole-5-carboxamide] | 0.036 mg/kg, i.v.
14 | CCCCc1nc(C(O)C(C)(C)C)c(C(N)=O)n1Cc1ccc(-c2ccccc2-c2nnn[nH]2)cc1 (stereo not shown) [Example 75, 2-Butyl-4-(1-hydroxy-2,2-dimethylpropyl)-1-{4-[2-(tetrazol-5-yl)phenyl]phenyl}methylimidazole-5-carboxamide] | 0.11 mg/kg, i.v.
15 | CCCc1nc(C(O)C(C)C)c(C(N)=O)n1Cc1ccc(-c2ccccc2-c2nnn[nH]2)cc1 (stereo not shown) [Example 76, 4-(1-Hydroxy-2-methylpropyl)-2-propyl-1-{4-[2-(tetrazol-5-yl)phenyl]phenyl}methylimidazole-5-carboxamide] | 0.022 mg/kg, i.v.
16 | CCCCc1nc(CCl)c(Cl)n1Cc1ccc(-c2ccccc2C(=O)O)cc1 [compound A, 2-[4-(2-butyl-5-chloro-4-chloromethylimidazoll-ylmethyl)phenyl]benzoic acid, reference compound] | 3.3 mg/kg, i.v.
